Data on 4 compounds can be found in PMC12434668 (Journal of Medicinal Chemistry, 2025).

In general, Ki refers to a measure of affinity in units of concentration, obtained from inhibition or displacement. Broadly, the GI50 is the concentration that inhibits growth by half. As usually defined, the EC50 is the concentration giving half of the maximal effect. A high value points to lower potency in that assay. The term solubility (kinetic) denotes solubility judged after dilution from a stock solution rather than from solid. By bioavailability is commonly meant dose-corrected exposure relative to a reference, in per cent.

≈ marks a conversion by molar mass, not a printed value. Where “and” joins values, the source holds several entries; their conditions need not be identical. Equal entries are not always repeated. Where two headings read alike, the source gives them in different places. A value given as a limit tells only on which side of the number the result lay.

For data set [1], the target named is T1, Mcl-1 (Homo sapiens, UniProt Q07820).
T1 construct: Briefly, a previously reported construct was subcloned into an expression vector (pDEST-HisMBP); MBP (from vector pDEST-HisMBP); made in house; host or cells: Escherichia coli BL21 CodonPlus (DE3) RIL
T1 sequence (Q07820 whole entry): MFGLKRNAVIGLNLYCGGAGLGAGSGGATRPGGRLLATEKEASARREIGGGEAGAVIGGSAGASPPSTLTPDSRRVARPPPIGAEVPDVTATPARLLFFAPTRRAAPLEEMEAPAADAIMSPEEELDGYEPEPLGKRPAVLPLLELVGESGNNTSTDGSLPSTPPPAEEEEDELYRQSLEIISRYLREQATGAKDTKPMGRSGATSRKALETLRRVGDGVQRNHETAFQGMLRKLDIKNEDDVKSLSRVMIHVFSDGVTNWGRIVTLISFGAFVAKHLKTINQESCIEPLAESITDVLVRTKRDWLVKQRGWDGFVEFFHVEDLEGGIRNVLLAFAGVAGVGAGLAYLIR
The data set is described as follows: TR-FRET binding assay (FITC-Bak peptide competition). From the text:
Protein preparation was described previously. Briefly, a previously reported construct was subcloned into an expression vector (pDEST-HisMBP) expressed in Escherichia coli BL21 CodonPlus (DE3) RIL (Stratagene) and purified through nickel-column and size-exclusion chromatography sequentially.
Mixtures containing vehicle without compound served as a negative control, while mixtures containing no protein served as a positive control. […] Two or more repeats were obtained and average K i values are reported.
On the technique in general: Time-resolved FRET reads energy transfer from a long-lived donor to a nearby acceptor.

In data set [2] the test system is NCI-H929 cells. The data set is described as follows: In vitro proliferation assay (CellTiter-Glo), H929. The data set is classed as cell-based. The following applies: Homo sapiens. The protocol:
(§1) NCI-H929, A427, and K562 cell lines were obtained from ATCC. NCI-H929 cells were cultured in RPMI1640 (ATCC-formulated, Catalog No. 30-2001) + 10% fetal calf serum (FCS, GIBCO BRL, Cat. No. 26140) + 0.05 mM mercaptoethanol. A-427 cells were cultured in RPMI1640 (ATCC-formulated, Catalog No. 30-2001) + 10% fetal calf serum (FCS, GIBCO BRL, Cat. No. 26140). K562 cell lines were cultured in Iscove’s Modified Dulbecco Medium (Gibco-formulated, purchased from Thermo-Fisher, Cat. No. 12440-053) + 10% fetal bovine serum (FBS, Sigma-Aldrich, F2442). All cell lines were cultured at 37 °C with 5% CO2 in a humidified incubator and have been regularly tested negatively for mycoplasm contamination.
(§2) Cells were seeded at 750–1500 cells per well (depending on growth kinetics) in 384-well plates (Corning, Catalog No. 3707) or at 3000 cells per well in 96-well plates in the respective growth medium and allowed to settle overnight. Suspension cells were plated immediately before compound addition. Adherent cell lines were incubated overnight at 37 °C in a tissue culture incubator prior to compound addition. Compounds were added in triplicates using an HP D300e Digital Dispenser (Hewlett-Packard) or manually at the concentrations indicated and total volumes were normalized using DMSO backfill, with final DMSO concentration of 0.5%. Control wells were treated with DMSO only. Following incubation for 72 or 96 h, a Cell Titer-Glo assay was conducted following the manufacturer recommendations (Promega, G9243) and luminescence was measured using a Victor X5 (PerkinElmer) or a Cytation 3 (Biotek) plate reader. % Viability was defined as relative luminescence units (RLU) of each well divided by the RLU of cells on day 0. Four parameter sigmoidal dose–response curves were generated and IC50 values were determined using XLFit (IDBS) software (eq 205) or in-house software. Drug combination experiments were performed in 96-well or 384-well format and drug synergy was determined using the BLISS model (PMID: 26171228).
On the technique in general: In ATP-based viability assays light output follows the ATP content of the culture.

In data set [3] the test system is A427 cells. The data set is described as follows: In vitro proliferation assay (CellTiter-Glo), A427. The data set is classed as cell-based. Conditions: Homo sapiens, A-427. The protocol: as §1, §2
Data set [4] relates to K562 cells. The data set can be described thus: In vitro proliferation counterscreen, Mcl-1 insensitive K562. Conditions: Homo sapiens; Mcl-1 insensitive K562; top concentration tested 12.5 µM. In kind it is cell-based. The procedure: NCI-H929, A427, and K562 cell lines were obtained from ATCC.
Suspension cells were plated immediately before compound addition. Adherent cell lines were incubated overnight at 37 °C in a tissue culture incubator prior to compound addition. Compounds were added in triplicates using an HP D300e Digital Dispenser (Hewlett-Packard) or manually at the concentrations indicated and total volumes were normalized using DMSO backfill, with final DMSO concentration of 0.5%. Control wells were treated with DMSO only. Following incubation for 72 or 96 h, a Cell Titer-Glo assay was conducted following the manufacturer recommendations (Promega, G9243) and luminescence was measured using a Victor X5 (PerkinElmer) or a Cytation 3 (Biotek) plate reader. % Viability was defined as relative luminescence units (RLU) of each well divided by the RLU of cells on day 0.
A general note: A counterscreen serves to expose hits that act by an unwanted route or on another target.

The subject of data set [5] is caspase 3/7 in H929 cells. The data set can be described thus: Caspase 3/7 induction assay (Caspase-Glo), H929. Conditions: compound treatment for 3 h; for EC50: Homo sapiens, NCI-H929. The data set is classed as cell-based. The protocol: (§3) Cells were treated with a 10-point compound titration and incubated at 37 °C for 3 h.
Data set [6] deals with caspase 3/7 in A427 cells. The data set is described as follows: Caspase 3/7 induction assay (Caspase-Glo), A427. In kind it is cell-based. The following applies: compound treatment for 3 h; for EC50: Homo sapiens, A-427. The protocol:
as §3

For data set [7], the system named is caspase 3/7 in K562 cells. The data set can be described thus: Caspase 3/7 induction assay (Caspase-Glo), K562. The data set is classed as cell-based. The following applies: compound treatment for 3 h; for EC50: Homo sapiens, K562. The protocol:
as §3

Data set [8] can be described thus: Mouse pharmacokinetic analyses (i.v. and oral). The data set is classed as in vivo. Conditions: plasma; for AUC: dose not printed at this place. The protocol: For PK analysis, mice were administered intravenously or orally with compound formulated in 10% ethanol and 10% Cremophor EL. Compound 13 dosing was also screened with 20% Phosphal IPG, 20% Phosphal MCT, 10% HP-β-CD, and 40% HP-β-CD. Plasma samples were obtained at predefined time points and compound concentrations in plasma were measured by quantitative HPLC–MS/MS using an internal standard. Calibration and quality control samples were prepared using blank plasma from untreated animals. Samples were precipitated with acetonitrile and injected into a HPLC system (Agilent 1200). Separation was performed by gradients of 5 mmol/L ammonium acetate pH 5.0 and acetonitrile with 0.1% formic acid on a Luna C8 reversed-phase column with 2.5 μm particles (Phenomenex). The HPLC was interfaced by ESI operated in positive ionization mode to a triple quadrupole mass spectrometer (6500+ Triple Quad System, SCIEX) operated in multiple reaction monitoring mode. Chromatograms were analyzed with Analyst (SCIEX) and pharmacokinetic parameters were calculated by noncompartmental analysis using proprietary software.

A short description of data set [9]: Kinetic aqueous solubility. In kind it is physicochemical.
Where [10] appears, read: in the presence of 1% fetal bovine serum, average of at least n = 2, read-out: TRFRET, Mcl-1 Ki.
[11] abbreviates: supplementary CSV, unit inferred.
The mark [12] stands for this setting: iv, dosed at 20 mg/kg, read-out: i.v. mouse CL.
Where [13] appears, read: iv, supplementary CSV, unit not given (Table 1: 20 mg/kg, 14 and 16 at 10 mg/kg), read-out: CL.
The mark [14] stands for this setting: supplementary CSV, unit inferred, read-out: Ki TRFRET.
The mark [15] stands for this setting: H929 cell line, average of at least n = 2, triplicate.
Setting [16] is: A427 cell line, average of at least n = 2, triplicate.

For the compound `COc1cc2c3c(cc(C(=O)O)n3CCCOCc3nn(C)c(C)c3-c3c(Cl)ccc4c(CCCOc5cc(C)c(Cl)c(C)c5)c5n(c34)[C@H](C)CN2C5=O)c1OC` [Compound 10, (2^63^4 S a ,1^72^2 R a ,2^4 R)-2^7-Chloro-2^10-(3-(4-chloro-3,5-dimethylphenoxy)propyl)-1^4,1^5-dimethoxy-2^4,3^1,3^5-trimethyl-2^1-oxo-2^1,2^2,2^3,2^4-tetrahydro-1^1 H,3^1 H-5-oxa-2(2,6)-pyrazino[1,2-a]indola-1(7,1)-indola-3(4,3)-pyrazolacyclooctaphane-1^2-carboxylic Acid], the Ki in data set [1] (setting [10]) stood at 0.08 ± 0.01 nM. In addition, the GI50 in data set [2] (setting [11]) is 20 nM; in [3] (setting [11]) it was 48 nM; in data set [4], more than 9700 nM. For the same compound, the EC50 in data set [5] is 9 nM; in data set [6], 11 nM; in [7], more than 3120 nM. Further, the “H929 Caspase 3/7 maximum activity, fold over vehicle (FoV)” value (“H929 Caspase 3/7 maximum activity, fold” below) in [5] stood at 16 fold. Further, in data set [6], the “A427 Caspase 3/7 fold over vehicle (FoV)” value came out at 13 fold. Moreover, the “K562 Caspase 3/7 fold over vehicle (FoV)” value in data set [7] came to 1.4 fold. Besides, the clearance in data set [8] (setting [12]) and in [8] (setting [13]) was 6.6 mL/min/kg in each case. Moreover, the solubility (kinetic) in data set [9] (aqueous medium at pH 6.8, pH 6.8) is 2 µg/mL (≈ 2.45 µM).

As to `COc1cc2c3c(cc(C(=O)O)n3CCCOCc3nn(C)cc3-c3c(Cl)ccc4c(CCCOc5cc(C)c(Cl)c(C)c5)c5n(c34)[C@H](C)CN2C5=O)c1C` [Compound 17, (2^63^4 S a ,1^72^2 R a ,2^4 R)-2^7-Chloro-2^10-(3-(4-chloro-3,5-dimethylphenoxy)propyl)-1^5-methoxy-1^4,2^4,3^1-trimethyl-2^1-oxo-2^1,2^2,2^3,2^4-tetrahydro-1^1 H,3^1 H-5-oxa-2(2,6)-pyrazino[1,2-a]indola-1(7,1)-indola-3(4,3)-pyrazolacyclooctaphane-1^2-carboxylic Acid], the Ki in data set [1] (setting [10]) is less than 0.08 nM; in [1] (setting [14]) it was less than 0.02 nM. Further, the GI50 is 23 ± 5 nM in [2] (setting [15]), 32 ± 7 nM in [3] (setting [16]) and more than 12500 nM in [4]. Besides, the figures for the EC50 in [5], in data set [6] and in [7] were 16 nM, 12 nM and more than 3120 nM, respectively. The “H929 Caspase 3/7 maximum activity, fold” value in [5] was 16 fold and 16 (16) fold. Also, the “A427 Caspase 3/7 fold over vehicle (FoV)” value in data set [6] turned out to be 16 fold. Besides, in data set [7], the “K562 Caspase 3/7 fold over vehicle (FoV)” value is 1.3 fold. In addition, the clearance in [8] (setting [12]) and in [8] (setting [13]) was 5.7 mL/min/kg in each case. This compound showed a solubility (kinetic) in [9] (aqueous medium, pH 6.8, pH 6.8) of 39 µg/mL (≈ 49.7 µM).

As for `COc1cc2c3c(cc(C(=O)O)n3CCCOCc3ccncc3-c3c(Cl)ccc4c(CCCOc5cc(C)c(Cl)c(C)c5)c5n(c34)[C@H](C)CN2C5=O)c1OC` [Compound 22, (2^63^4 S a ,1^72^2 R a ,2^4 R)-2^7-Chloro-2^10-(3-(4-chloro-3,5-dimethylphenoxy)propyl)-1^4,1^5-dimethoxy-2^4-methyl-2^1-oxo-2^1,2^2,23,24-tetrahydro-11H-5-oxa-2(2,6)-pyrazino[1,2-a]indola-1(7,1)-indola-3(3,4)-pyridinacyclooctaphane-1^2-carboxylic Acid], the Ki in data set [1] (setting [10]) stood at 0.08 ± 0.01 nM. The GI50 in data set [2] (setting [15]) is 29 ± 6 nM; in data set [3] (setting [16]), 58 ± 4 nM; in [4], more than 12500 nM. Besides, the clearance in data set [8] (setting [12]) and in data set [8] (setting [13]) was 3.5 mL/min/kg in each case. This compound also registered a kinetic solubility in [9] (aqueous medium, pH 6.8) of 11 µg/mL (≈ 13.8 µM).

Consider `COc1cc2c3c(cc(C(=O)N(C)C)n3CCCOCc3nn(C)cc3-c3c(Cl)ccc4c(CCCOc5cc(C)c(Cl)c(C)c5)c5n(c34)[C@H](C)CN2C5=O)c1OC` [Compound 25, (2^63^4 S a ,1^72^2 R a ,2^4 R)-2^7-chloro-2^10-(3-(4-chloro-3,5-dimethylphenoxy)propyl)-1^4,1^5-dimethoxy-N,N,2^4,3^1-tetramethyl-2^1-oxo-2^1,2^2,2^3,2^4-tetrahydro-1^1 H,3^1 H-5-oxa-2(2,6)-pyrazino[1,2-a]indola-1(7,1)-indola-3(4,3)-pyrazolacyclooctaphane-1^2-carboxamide], for which the Ki was less than 0.08 nM in data set [1] (setting [10]) and 0.077 nM in data set [1] (setting [14]). Besides, the GI50 in data set [2] (setting [15]) was 39 ± 7 nM; in data set [3] (setting [16]), 105 ± 24 nM; in [4], more than 12500 nM. Moreover, the EC50 was 17 nM in data set [5], 24 nM in [6] and more than 3120 nM in data set [7]. Moreover, the “H929 Caspase 3/7 maximum activity, fold” value in data set [5] is reported as 16 fold. Also, the “A427 Caspase 3/7 fold over vehicle (FoV)” value in [6] is on record as 14 fold. The “K562 Caspase 3/7 fold over vehicle (FoV)” value in data set [7] was determined as 1.4 fold. Further, the AUC turned out to be 136 µM·h in [8] (iv, read-out: AUCIV) and 14 µM·h in data set [8] (oral, read-out: AUCPO). For the same compound, the clearance in data set [8] (setting [12]) and in data set [8] (setting [13]) was 6.4 mL/min/kg throughout. The bioavailability in data set [8] (po, read-out: oral bioavailability (F)) came to 22%.
